Results as given in ChEMBL document CHEMBL4813989, “Design, synthesis, and biological evaluation of nitroisoxazole-containing spiro[pyrrolidin-oxindole] derivatives as novel glutathione peroxidase 4/mouse double minute 2 dual inhibitors that inhibit breast adenocarcinoma cell proliferation” (Eur J Med Chem, 2021).
The source made the active and inactive calls. The rule behind the calls is not given here.

Assays:
[1] = test system: MCF7; experiment: Induction of apoptosis in human MCF7 cells assessed as late apoptotic cells at 0.5 uM incubated for 48 hrs by annexin-V-FITC and PI staining based flow cytometry analysis (reference value: 2.61 %); assay type: functional
[2] = test system: MCF7; experiment: Induction of apoptosis in human MCF7 cells assessed as viable cells at 1 uM incubated for 48 hrs by annexin-V-FITC and PI staining based flow cytometry analysis (reference value: 93.1 %); assay type: functional; details: read-out: Activity
[3] = test system: MCF7; experiment: Induction of apoptosis in human MCF7 cells assessed as late apoptotic cells at 1 uM incubated for 48 hrs in presence of Fer-1 by annexin-V-FITC and PI staining based flow cytometry analysis (reference value: […] %); assay type: functional
[4] = test system: Mus musculus; experiment: In vivo induction of apoptosis in human MCF7 cells xenografted in BALB/c mouse assessed as increase in TUNEL expression at 25 to 50 mg/kg, ip administered once for 17 days by immunohistochemical analysis; assay type: functional, organism-based; details: dose 25-50 mg/kg, time 17.0 day
[5] = test system: MCF7; experiment: Antiproliferative activity against human MCF7 cells assessed as reduction in cell growth incubated for 48 hrs by CCK8 assay; details: MCF7, 48 h
[6] = test system: MCF7; experiment: Induction of apoptosis in human MCF7 cells assessed as necrotic cells at 1 uM incubated for 48 hrs in presence of Fer-1 by annexin-V-FITC and PI staining based flow cytometry analysis (reference value: 3.21 %); assay type: functional
[7] = test system: MCF7; experiment: Induction of apoptosis in human MCF7 cells assessed as early apoptotic cells at 1 uM incubated for 48 hrs in presence of Fer-1 by annexin-V-FITC and PI staining based flow cytometry analysis (reference value: 1.05 %); assay type: functional
[8] = target: T1, E3 ubiquitin-protein ligase Mdm2 (Homo sapiens, UniProt Q00987); experiment: Inhibition of MDM2 in human MCF7 cells assessed as increase in p53 accumulation at 0.5 to 2 uM incubated for 48 hrs by Western blot analysis; assay type: cell-based; details: dose 0.5-2 µM
Target sequence in this assay (Q00987 whole entry, looked up): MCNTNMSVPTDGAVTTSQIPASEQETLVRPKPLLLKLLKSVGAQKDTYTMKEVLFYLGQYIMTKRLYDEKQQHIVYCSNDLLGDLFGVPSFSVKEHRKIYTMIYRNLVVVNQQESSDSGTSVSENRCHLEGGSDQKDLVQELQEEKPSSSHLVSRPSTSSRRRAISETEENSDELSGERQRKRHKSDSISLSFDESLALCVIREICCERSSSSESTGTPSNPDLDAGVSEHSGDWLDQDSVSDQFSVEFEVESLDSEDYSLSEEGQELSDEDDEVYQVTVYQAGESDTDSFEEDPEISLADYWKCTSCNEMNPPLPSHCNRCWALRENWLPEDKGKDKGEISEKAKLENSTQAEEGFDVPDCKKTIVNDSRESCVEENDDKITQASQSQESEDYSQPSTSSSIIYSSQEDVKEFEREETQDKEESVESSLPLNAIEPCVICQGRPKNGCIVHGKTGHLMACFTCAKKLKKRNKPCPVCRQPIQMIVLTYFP

[9] = test system: MCF7; experiment: Induction of apoptosis in human MCF7 cells assessed as viable cells at 0.1 uM incubated for 48 hrs by annexin-V-FITC and PI staining based flow cytometry analysis (reference value: 93.1 %); assay type: functional; details: read-out: Activity
[10] = test system: MCF7; experiment: Induction of apoptosis in human MCF7 cells assessed as late apoptotic cells at 1 uM incubated for 48 hrs by annexin-V-FITC and PI staining based flow cytometry analysis (reference value: 2.61 %); assay type: functional
[11] = test system: MCF7; experiment: Induction of LPO production in human MCF7 cells at 1 uM in presence of Fer-1 by C11-BODIPY staining based confocal laser scanning microscopic analysis; assay type: functional, cell-based
[12] = test system: MCF-10A; experiment: Cytotoxicity against human MCF-10A cells assessed as reduction in cell viability incubated for 48 hrs by CCK8 assay; assay type: cell-based
[13] = test system: MCF7; experiment: Induction of apoptosis in human MCF7 cells assessed as necrotic cells at 0.1 uM incubated for 48 hrs by annexin-V-FITC and PI staining based flow cytometry analysis (reference value: 3.21 %); assay type: functional
[14] = test system: MCF7; experiment: Antitumor activity against human MCF7 cells xenografted in BALB/c mouse assessed as reduction in Ki-67 expression at 25 to 50 mg/kg, ip administered once for 17 days by immunohistochemical analysis; assay type: functional, organism-based; details: dose 25-50 mg/kg, time 17.0 day
[15] = test system: MCF7; experiment: Induction of apoptosis in human MCF7 cells assessed as early apoptotic cells at 0.5 uM incubated for 48 hrs by annexin-V-FITC and PI staining based flow cytometry analysis (reference value: 1.05 %); assay type: functional
[16] = test system: MCF7; experiment: Induction of apoptosis in human MCF7 cells assessed as late apoptotic cells at 0.1 uM incubated for 48 hrs by annexin-V-FITC and PI staining based flow cytometry analysis (reference value: 2.61 %); assay type: functional
[17] = test system: MCF7; experiment: Induction of apoptosis in human MCF7 cells assessed as early apoptotic cells at 0.1 uM incubated for 48 hrs by annexin-V-FITC and PI staining based flow cytometry analysis (reference value: 1.05 %); assay type: functional
[18] = test system: MCF7; experiment: Induction of apoptosis in human MCF7 cells assessed as early apoptotic cells at 1 uM incubated for 48 hrs by annexin-V-FITC and PI staining based flow cytometry analysis (reference value: 1.05 %); assay type: functional
[19] = test system: MCF7; experiment: Induction of apoptosis in human MCF7 cells assessed as increase in cleaved caspase-9 level at 2 uM incubated for 48 hrs by Western blot analysis; assay type: functional, cell-based
[20] = test system: MCF7; experiment: Induction of apoptosis in human MCF7 cells assessed as viable cells at 1 uM incubated for 48 hrs in presence of Fer-1 by annexin-V-FITC and PI staining based flow cytometry analysis (reference value: 93.1 %); assay type: functional; details: read-out: Activity
[21] = test system: MCF7; experiment: Antiproliferative activity against human MCF7 cells assessed as reduction in cell growth incubated for 48 hrs in presence of Fer-1 by CCK8 assay; details: MCF7, 48 h
[22] = test system: MCF7; experiment: Induction of apoptosis in human MCF7 cells assessed as viable cells at 0.5 uM incubated for 48 hrs by annexin-V-FITC and PI staining based flow cytometry analysis (reference value: 93.1 %); assay type: functional; details: read-out: Activity
[23] = target: T2, Phospholipid hydroperoxide glutathione peroxidase GPX4 (Homo sapiens) (UniProt P36969); experiment: Binding affinity in GPX4 in human MCF7 cells assessed as increase in stability in 60 and 65 degreeC at 100 uM by cellular thermal shift assay; assay type: cell-based
T2 sequence (whole entry): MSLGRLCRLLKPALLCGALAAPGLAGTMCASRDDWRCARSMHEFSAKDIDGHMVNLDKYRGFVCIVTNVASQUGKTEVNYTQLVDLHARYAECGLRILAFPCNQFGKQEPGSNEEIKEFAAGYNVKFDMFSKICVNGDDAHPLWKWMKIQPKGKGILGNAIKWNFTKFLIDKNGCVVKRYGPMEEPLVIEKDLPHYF

[24] = target: T1, E3 ubiquitin-protein ligase Mdm2; experiment: Inhibition of MDM2 (unknown origin) using peptide as substrate incubated for 30 mins by fluorescence polarization assay
Target sequence in this assay (Q00987 whole entry): as the sequence (Q00987 whole entry, looked up) above

[25] = test system: MCF7; experiment: Induction of ROS production in human MCF7 cells at 1 uM in presence of Fer-1 by DCFH-DA assay; assay type: functional, cell-based
[26] = test system: MCF7; experiment: Antitumor activity against human MCF7 cells xenografted in BALB/c mouse assessed as tumor growth inhibition at 25 to 50 mg/kg, ip administered once for 17 days; assay type: functional, organism-based; details: dose 25-50 mg/kg, time 17.0 day
[27] = Toxicity in BALB/c mouse xenografted with human MCF7 cells assessed as effect on body weight at 25 to 50 mg/kg, ip administered once for 17 days; assay type: organism-based; details: in vivo, 408 h, dose 25-50 mg/kg, time 17 day
[28] = test system: MCF7; experiment: Induction of apoptosis in human MCF7 cells assessed as necrotic cells at 0.5 uM incubated for 48 hrs by annexin-V-FITC and PI staining based flow cytometry analysis (reference value: 3.21 %); assay type: functional
[29] = target: T2, Phospholipid hydroperoxide glutathione peroxidase GPX4 (Homo sapiens); experiment: Inhibition of GPX4 in human MCF7 cells assessed as increase in GPX4 degradation incubated for 48 hrs by Western blot analysis; assay type: cell-based; details: dose 0.1-2 µM
[30] = target: T1, E3 ubiquitin-protein ligase Mdm2; experiment: Inhibition of MDM2 in human MCF7 cells assessed as increase in MDM2 accumulation at 0.5 to 2 uM incubated for 48 hrs by Western blot analysis; assay type: cell-based; details: dose 0.5-2 µM
Target sequence in this assay (Q00987 whole entry, looked up): as the sequence (Q00987 whole entry, looked up) above

[31] = test system: MCF7; experiment: Induction of ROS production in human MCF7 cells at 1 uM by DCFH-DA assay; assay type: functional, cell-based
[32] = test system: MCF7; experiment: Induction of apoptosis in human MCF7 cells assessed as necrotic cells at 1 uM incubated for 48 hrs by annexin-V-FITC and PI staining based flow cytometry analysis (reference value: 3.21 %); assay type: functional
[33] = target: E3 ubiquitin-protein ligase Mdm2 (Mus musculus) (UniProt P23804); experiment: In vivo inhibition of MDM2 in human MCF7 cells xenografted in BALB/c mouse assessed as increase in p53 expression at 25 to 50 mg/kg, ip administered once for 17 days by immunofluorescence analysis; assay type: functional, organism-based; details: dose 25-50 mg/kg, time 17.0 day
[34] = test system: MCF7; experiment: Induction of LPO production in human MCF7 cells at 1 uM by C11-BODIPY staining based confocal laser scanning microscopic analysis; assay type: functional, cell-based

E3 ubiquitin-protein ligase Mdm2 (Mus musculus), sequence (P23804 whole entry): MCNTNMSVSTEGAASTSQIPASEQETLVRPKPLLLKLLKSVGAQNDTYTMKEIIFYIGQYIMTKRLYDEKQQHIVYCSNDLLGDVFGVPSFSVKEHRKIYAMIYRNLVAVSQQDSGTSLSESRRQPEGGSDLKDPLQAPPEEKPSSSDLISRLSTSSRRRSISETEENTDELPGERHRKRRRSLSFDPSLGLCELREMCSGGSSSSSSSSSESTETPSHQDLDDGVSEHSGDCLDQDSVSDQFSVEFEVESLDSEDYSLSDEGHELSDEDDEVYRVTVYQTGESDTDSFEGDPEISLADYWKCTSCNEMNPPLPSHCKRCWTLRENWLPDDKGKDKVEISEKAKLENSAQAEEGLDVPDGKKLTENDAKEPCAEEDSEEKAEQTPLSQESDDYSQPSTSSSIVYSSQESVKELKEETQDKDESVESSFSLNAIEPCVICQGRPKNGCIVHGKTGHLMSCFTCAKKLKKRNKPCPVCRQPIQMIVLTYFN

Question: Which Activity [1] does the source give for `Cc1noc([C@@H]2[C@@H](c3ccccc3)[C@H](C(F)(F)F)N[C@@]23C(=O)Nc2cc(Cl)ccc23)c1[N+](=O)[O-]` here?
Answer: Its Activity is 3.16%.

Question: And the viability at 1 µM [2]?
Answer: Its viability at 1 µM is 81.2%.

Question: What about the Activity [3] of the same compound?
Answer: Its Activity is 4.71%.

Question: And the Activity [4]?
Answer: The Activity was “Active”.

Question: And the IC50 [5]?
Answer: Its IC50 is 120 nM.

Question: And the Activity [6]?
Answer: The Activity was 3.35%.

Question: And the Activity [7]?
Answer: The Activity was 7.98%.

Question: What about the inhibition [8] of the same compound?
Answer: The inhibition was “Active”.

Question: And the viability at 0.1 µM [9]?
Answer: Its viability at 0.1 µM is 91.3%.

Question: And the Activity [10]?
Answer: The Activity was 4.91%.

Question: And the Activity [11]?
Answer: The Activity was “inactive”.

Question: What about the Activity [12] of the same compound?
Answer: Its Activity is “Non-Toxic”.

Question: And the Activity [13]?
Answer: Its Activity is 4.51%.

Question: What about the Activity [14] of the same compound?
Answer: The Activity was “Active”.

Question: And the Activity [15]?
Answer: Its Activity is 7.81%.

Question: What about the Activity [16] of the same compound?
Answer: The Activity was 2.85%.

Question: And the Activity [17]?
Answer: The Activity was 1.39%.

Question: What about the Activity [18] of the same compound?
Answer: The Activity was 11.3%.

Question: What about the Activity [19] of the same compound?
Answer: Its Activity is “Active”.

Question: What about the viability at 1 µM [20] of the same compound?
Answer: Its viability at 1 µM is 84%.

Question: And the IC50 [21]?
Answer: Its IC50 is 13500 nM.

Question: And the viability at 0.5 µM [22]?
Answer: The viability at 0.5 µM was 83.8%.

Question: What about the Activity [23] of the same compound?
Answer: The Activity was “Active”.

Question: And the Ki [24]?
Answer: Its Ki is 240 nM.

Question: What about the Activity [25] of the same compound?
Answer: Its Activity is “inactive”.

Question: What about the TGI [26] of the same compound?
Answer: Its TGI is “Active”.

Question: What about the Activity [27] of the same compound?
Answer: The Activity was “Non-Toxic”.

Question: And the Activity [28]?
Answer: Its Activity is 5.25%.

Question: What about the inhibition [29] of the same compound?
Answer: The inhibition was “Active”.

Question: What about the inhibition [30] of the same compound?
Answer: The inhibition was “Active”.

Question: And the Activity [31]?
Answer: The Activity was “Active”.

Question: And the Activity [32]?
Answer: The Activity was 2.61%.

Question: And the inhibition [33]?
Answer: Its inhibition is “Active”.

Question: What about the Activity [34] of the same compound?
Answer: The Activity was “Active”.
